Assay results taken from publication PMC6910110, “Icaritin, an inhibitor of beta-site amyloid cleaving enzyme-1, inhibits secretion of amyloid precursor protein in APP-PS1-HEK293 cells by impeding the amyloidogenic pathway” (PeerJ, 2019).

Molecular target: T1, beta-site amyloid cleaving enzyme (BACE)1 (Homo sapiens, UniProt P56817)
T1 construct: gene BACE1
Experiment: BACE1 FRET assay kit (Panvera), Swedish-mutant peptide substrate
Type: biochemical

T1 sequence (P56817 46-457): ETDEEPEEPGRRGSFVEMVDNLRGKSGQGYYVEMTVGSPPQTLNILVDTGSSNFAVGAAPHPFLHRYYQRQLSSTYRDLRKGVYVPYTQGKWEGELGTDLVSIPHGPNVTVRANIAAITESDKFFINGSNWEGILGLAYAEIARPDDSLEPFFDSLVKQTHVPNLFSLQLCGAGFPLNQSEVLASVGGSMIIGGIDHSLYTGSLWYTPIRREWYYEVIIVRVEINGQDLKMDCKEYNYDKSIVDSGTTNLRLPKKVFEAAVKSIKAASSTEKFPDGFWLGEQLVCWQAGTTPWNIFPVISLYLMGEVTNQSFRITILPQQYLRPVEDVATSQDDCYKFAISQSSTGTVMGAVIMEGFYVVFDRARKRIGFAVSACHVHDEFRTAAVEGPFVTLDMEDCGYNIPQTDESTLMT

IC50: 5.7 ± 1.09 µM
Structure (SMILES): COc1ccc(-c2oc3c(CC=C(C)C)c(O)cc(O)c3c(=O)c2O)cc1 [ICT, Icaritin]
